# Measured values as given in patent US9624209B2, “Substituted phenylureas and phenylamides as vanilloid receptor ligands” (Gruenenthal GmbH, priority 2009, dated 2017).
# Biological target: T1, vanilloid receptor 1 (VR1/TRPV1 receptor) (Homo sapiens, UniProt Q8NER1)
# T1 construct: expressed in transfected cells; host or cells: CHO K1 cells (ECACC), stably transfected
# Experiment: VR1/TRPV1 receptor affinity, capsaicin stimulus (human)
# Type: cell-based, human being
# Set-up: key to (f) Ki (human being) [nM] Cap: result in words: AG=agonist; pAG=partial agonist; NE=no effect
# Details: for Ki: Tables 8-12, read-out: (f) Ki (human being) [nM] Cap; for inhibition at 5 µM: Tables 8-12, read-out: (f) Ki (human being) [nM] Cap: inhibition (as a percentage); for (f) Ki (human being) [nM] Cap: result in words: Tables 8-12
# T1 sequence (Q8NER1 whole entry): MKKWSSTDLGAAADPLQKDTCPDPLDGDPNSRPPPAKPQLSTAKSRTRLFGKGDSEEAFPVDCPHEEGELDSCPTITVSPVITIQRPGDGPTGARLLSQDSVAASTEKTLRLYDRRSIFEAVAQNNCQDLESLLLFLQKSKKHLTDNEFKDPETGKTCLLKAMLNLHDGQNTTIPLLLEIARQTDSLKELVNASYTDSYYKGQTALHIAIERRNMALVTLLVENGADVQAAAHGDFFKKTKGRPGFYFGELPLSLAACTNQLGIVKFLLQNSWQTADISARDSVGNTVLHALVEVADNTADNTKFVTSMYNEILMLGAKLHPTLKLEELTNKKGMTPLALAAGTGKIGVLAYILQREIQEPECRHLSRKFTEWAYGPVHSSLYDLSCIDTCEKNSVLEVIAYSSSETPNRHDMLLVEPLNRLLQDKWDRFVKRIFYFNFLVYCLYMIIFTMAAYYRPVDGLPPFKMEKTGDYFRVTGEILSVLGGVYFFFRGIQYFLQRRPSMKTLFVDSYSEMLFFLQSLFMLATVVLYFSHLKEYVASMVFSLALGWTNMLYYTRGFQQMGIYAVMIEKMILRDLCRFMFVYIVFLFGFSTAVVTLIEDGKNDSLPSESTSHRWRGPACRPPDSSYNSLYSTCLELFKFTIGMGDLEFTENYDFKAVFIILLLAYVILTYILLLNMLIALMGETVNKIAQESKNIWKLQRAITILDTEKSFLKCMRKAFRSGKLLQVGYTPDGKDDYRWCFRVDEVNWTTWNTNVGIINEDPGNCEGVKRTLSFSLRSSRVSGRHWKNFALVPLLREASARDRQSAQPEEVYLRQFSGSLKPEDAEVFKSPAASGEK
Molecule,Ki,further results
"CC(C)(C)c1cc(CNC(=O)Nc2ccc(CNS(C)(=O)=O)c(F)c2)n(-c2ccc(F)c(F)c2)n1 [Example B72, 1-[[5-tert-Butyl-2-(3,4-difluoro-phenyl)-2H-pyrazol-3-yl]-methyl]-3-[3-fluoro-4-(methanesulfonamido-methyl)-phenyl]-urea]",13 nM,
"COc1cccc(-n2nc(C(F)(F)F)cc2CNC(=O)C(C)c2ccc(CNS(C)(=O)=O)c(F)c2)c1 (stereo not drawn) [Example B15, 2-[3-Fluoro-4-(methanesulfonamido-methyl)-phenyl]-N-[[2-(3-methoxyphenyl)-5-(trifluoromethyl)-2H-pyrazol-3-yl]-methyl]-propionamide]",6 nM,
4-[1-[[5-tert-Butyl-2-(3-chlorophenyl)-2H-pyrazol-3-yl]-methyl-carbamoyl]-ethyl]-2-fluoro-N-[4-(trifluoromethyl)-phenyl]-benzamide [Example E49],3 nM,
"O=Cc1ccc(NC(=O)NCc2cc(C(F)(F)F)nn2-c2cccc(Cl)c2)cc1F [Example E61, 1-((1-(3-chlorophenyl)-3-(trifluoromethyl)-1H-pyrazol-5-yl)methyl)-3-(3-fluoro-4-formylphenyl)urea]",23 nM,
"CC(C(=O)NCc1cc(C(C)(C)C)nn1-c1cccc(Cl)c1)c1ccc(CN(C)S(C)(=O)=O)c(F)c1 (stereo not drawn) [Example B30, N-[[5-tert-Butyl-2-(3-chlorophenyl)-2H-pyrazol-3-yl]-methyl]-2-[3-fluoro-4-[(methyl-methylsulfonyl-amino)-methyl]-phenyl]-propionamide]",39 nM,
4-[1-[[5-tert-Butyl-2-(3-chloro phenyl)-2H-pyrazol-3-yl]-methyl-carbamoyl]-ethyl]-N-(3-fluorophenyl)-benzamide [Example E40],4 nM,
"CC(C(=O)NCc1cc(C(F)(F)F)nn1-c1cccc(Cl)c1)c1ccc(C(=O)N2CCOCC2)c(F)c1 (stereo not drawn) [Example E16, N-[[2-(3-Chlorophenyl)-5-(trifluoromethyl)-2H-pyrazol-3-yl]-methyl]-2-[3-fluoro-4-(morpholine-4-carbonyl)-phenyl]-propionamide]",,inhibition at 5 µM: 32%
4-[[[2-(3-Chlorophenyl)-5-(trifluoromethyl)-2H-pyrazol-3-yl]-methyl-carbamoyl]-methyl]-N-[4-(trifluoromethyl)-phenyl]-benzamide [Example E51],49 nM,
"CC(C)c1cccc(-n2nc(C(F)(F)F)cc2CNC(=O)Nc2ccc(CCS(C)(=O)=O)c(F)c2)c1 [Example D33, 1-[3-Fluoro-4-(2-methylsulfonyl-ethyl)-phenyl]-3-[[2-(3-isopropyl-phenyl)-5-(trifluoromethyl)-2H-pyrazol-3-yl]-methyl]-urea]",4 nM,
"CC(C)(C)c1cc(CNC(=O)Nc2ccc(CN)c(F)c2)n(-c2cccc(Cl)c2)n1 [Example B40, 1-[4-(Aminomethyl)-3-fluoro-phenyl]-3-[[5-tert-butyl-2-(3-chlorophenyl)-2H-pyrazol-3-yl]-methyl]-urea]",92 nM,
"COc1ccc(NC(=O)NCc2cc(C(C)(C)C)nn2-c2cccc(Cl)c2)cc1OC [Example A13, 1-[[5-tert-Butyl-2-(3-chlorophenyl)-2H-pyrazol-3-yl]-methyl]-3-(3,4-dimethoxyphenyl)-urea]",,(f) Ki (human being) [nM] Cap: result in words: AG
N-(4-Chlorophenyl)-4-[1-[[2-(3-chlorophenyl)-5-(trifluoromethyl)-2H-pyrazol-3-yl]-methyl-carbamoyl]-ethyl]-benzamide [Example E33],6 nM,
"COc1cccc(-n2nc(C(F)(F)F)cc2CNC(=O)Nc2ccc(CNS(N)(=O)=O)c(F)c2)c1 [Example B71, 1-[3-Fluoro-4-[(sulfamoylamino)-methyl]-phenyl]-3-[[2-(3-methoxyphenyl)-5-(trifluoromethyl)-2H-pyrazol-3-yl]-methyl]-urea]",41 nM,
"O=C(NCc1cc(C(F)(F)F)nn1-c1cccc(F)c1)Nc1ccc(N2CCCC2)c(F)c1 [Example C4, 1-[[2-(3-Fluorophenyl)-5-(trifluoromethyl)-2H-pyrazol-3-yl]-methyl]-3-(3-fluoro-4-pyrrolidin-1-yl-phenyl)-urea]",,inhibition at 5 µM: 13%
4-[[[5-tert-Butyl-2-(3-chlorophenyl)-2H-pyrazol-3-yl]-methyl-carbamoyl]amino]-2-chloro-benzoic acid methyl ester [Example E60],19 nM,
"CC(C)(C)c1cc(CNC(=O)Nc2ccc(CN3CCCC3)c(F)c2)n(-c2cccc(Cl)c2)n1 [Example B101, 1-[[5-tert-Butyl-2-(3-chlorophenyl)-2H-pyrazol-3-yl]-methyl]-3-[3-fluoro-4-(pyrrolidin-1-yl-methyl)-phenyl]-urea]",,inhibition at 5 µM: 43%
"CN(C(=O)Nc1ccc(C(=O)NC2CCOCC2)c(F)c1)c1cc(C(F)(F)F)nn1-c1cccc(Cl)c1 [Example E22, 4-[[[2-(3-Chlorophenyl)-5-(trifluoromethyl)-2H-pyrazol-3-yl]-methyl-carbamoyl]amino]-2-fluoro-N-tetrahydro-pyran-4-yl-benzamide]",,inhibition at 5 µM: 49%

Molecule,Ki,further results
4-[[[5-tert-Butyl-2-(3-chlorophenyl)-2H-pyrazol-3-yl]-methyl-carbamoyl]-methyl]-N-(4-fluorophenyl)-benzamide [Example E37],5 nM,
"NS(=O)(=O)NCc1ccc(NC(=O)NCc2cc(C(F)(F)F)nn2-c2ccc(F)c(F)c2)cc1 [Example B57, 1-[[2-(3,4-Difluoro-phenyl)-5-(trifluoromethyl)-2H-pyrazol-3-yl]-methyl]-3-[4-[(sulfamoylamino)-methyl]-phenyl]-urea]",58 nM,
"CS(=O)(=O)CCc1ccc(NC(=O)NCc2cc(C3CC3)nn2-c2cccc(Cl)c2)cc1F [Example D26, 1-[[2-(3-Chlorophenyl)-5-cyclopropyl-2H-pyrazol-3-yl]-methyl]-3-[3-fluoro-4-(2-methylsulfonyl-ethyl)-phenyl]-urea]",42 nM,
"CC(C(=O)NCc1cc(C(F)(F)F)nn1-c1cccc(Cl)c1)c1ccc(C(=O)Nc2ccc(F)cc2)c(F)c1 (stereo not drawn) [Example E45, 4-[1-[[2-(3-Chlorophenyl)-5-(trifluoromethyl)-2H-pyrazol-3-yl]-methyl-carbamoyl]-ethyl]-2-fluoro-N-(4-fluorophenyl)-benzamide]",0.3 nM,
"COc1cc(C(C)C(=O)NCc2cc(C(F)(F)F)nn2-c2cccc(Cl)c2)ccc1CNS(C)(=O)=O (stereo not drawn) [Example B76, N-[[2-(3-Chlorophenyl)-5-(trifluoromethyl)-2H-pyrazol-3-yl]-methyl]-2-[4-(methanesulfonamido-methyl)-3-methoxy-phenyl]-propionamide]",12 nM,
"NS(=O)(=O)NCc1ccc(NC(=O)NCc2cc(C3CC3)nn2-c2cccc(Cl)c2)cc1 [Example B75, 1-[[2-(3-Chlorophenyl)-5-cyclopropyl-2H-pyrazol-3-yl]-methyl]-3-[4-[(sulfamoylamino)-methyl]-phenyl]-urea]",19 nM,
"O=C(NCc1cc(C(F)(F)F)nn1-c1cccc(Cl)c1)Nc1ccc(N2CC(O)C2)c(F)c1 [Example C6, 1-[[2-(3-Chlorophenyl)-5-(trifluoromethyl)-2H-pyrazol-3-yl]-methyl]-3-[3-fluoro-4-(3-hydroxy-azetidin-1-yl)-phenyl]-urea]",43 nM,
"CCC(=O)c1ccc(C(C)C(=O)NCc2cc(C(F)(F)F)nn2-c2ccc(F)c(F)c2)cc1F (stereo not drawn) [Example E3, N-[[2-(3,4-Difluoro-phenyl)-5-(trifluoromethyl)-2H-pyrazol-3-yl]-methyl]-2-(3-fluoro-4-propanoyl-phenyl)-propionamide]",62 nM,
"CC(C)(C)c1cc(CNC(=O)Nc2ccc(CNS(C)(=O)=O)c(F)c2)n(-c2cccc(Cl)c2)n1 [Example B31, 1-[[5-tert-Butyl-2-(3-chlorophenyl)-2H-pyrazol-3-yl]-methyl]-3-[3-fluoro-4-(methanesulfonamido-methyl)-phenyl]-urea]",9 nM,
"CC(C(=O)NCc1cc(C(F)(F)F)nn1-c1cccc(Cl)c1)c1ccc(N2CCCS2(=O)=O)c(F)c1 (stereo not drawn) [Example C1, N-[[2-(3-Chlorophenyl)-5-(trifluoromethyl)-2H-pyrazol-3-yl]-methyl]-2-[4-(1,1-dioxo-[1,2]thiazolidin-2-yl)-3-fluoro-phenyl]-propionamide]",49 nM,
"CC(C(=O)NCc1cc(C(F)(F)F)nn1-c1cccc(Cl)c1)c1ccc(C(N)=O)c(F)c1 (stereo not drawn) [Example E4, 4-[1-[[2-(3-Chlorphenyl)-5-(trifluormethyl)-2H-pyrazol-3-yl]-methyl-carbamoyl]-ethyl]-2-fluoro-benzamide]",8 nM,
"CS(=O)(=O)NCc1ccc(NC(=O)NCc2cc(C(F)(F)F)nn2-c2cccc(C(F)(F)F)c2)cc1F [Example B55, 1-[3-Fluoro-4-(methanesulfonamido-methyl)-phenyl]-3-[[5-(trifluoromethyl)-2-[3-(trifluoromethyl)phenyl]-2H-pyrazol-3-yl]-methyl]-urea]",27 nM,
"COc1cccc(-n2nc(C(F)(F)F)cc2CNC(=O)Nc2ccc(CNS(C)(=O)=O)c(F)c2)c1 [Example B58, 1-[3-Fluoro-4-(methanesulfonamido-methyl)-phenyl]-3-[[2-(3-methoxyphenyl)-5-(trifluoromethyl)-2H-pyrazol-3-yl]-methyl]-urea]",16 nM,
"COc1cc(C(C)C(=O)NCc2cc(C(C)(C)C)nn2-c2cccc(Cl)c2)ccc1CNS(C)(=O)=O (stereo not drawn) [Example B98, N-[[5-tert-Butyl-2-(3-chlorophenyl)-2H-pyrazol-3-yl]-methyl]-2-[4-(methanesulfonamido-methyl)-3-methoxy-phenyl]-propionamide]",3 nM,
"CC(C(=O)NCc1cc(C(C)(C)C)nn1-c1cccc(Cl)c1)c1ccc(CCO)c(F)c1 (stereo not drawn) [Example A139, N-[[5-tert-Butyl-2-(3-chlorophenyl)-2H-pyrazol-3-yl]-methyl]-2-[3-fluoro-4-(2-hydroxy-ethyl)-phenyl]-propionamide]",,(f) Ki (human being) [nM] Cap: result in words: AG
"CC(C)(C)c1cc(CNC(=O)Nc2ccc(CCO)c(F)c2)n(-c2cccc(Cl)c2)n1 [Example A140, 1-[[5-tert-Butyl-2-(3-chlorophenyl)-2H-pyrazol-3-yl]-methyl]-3-[3-fluoro-4-(2-hydroxy-ethyl)-phenyl]-urea]",,(f) Ki (human being) [nM] Cap: result in words: AG
